Source: patent US8748470B2, “Methods for treating ovarian cancer by inhibiting fatty acid binding proteins” (The University of Chicago, priority 2011, dated 2014)

Key:
[1] = system: human ovarian cancer cells (HeyA8 or SKOV3ip1); experiment: ex vivo ovarian cancer cell proliferation on sections of human omentum; type: cell-based; conditions: HeyA8 or SKOV3ip1, fluorescently labeled, 24 h
Text: Representative images (left) and quantified fluorescence (right) were shown. Bars report means±s.e.m.

[2] = system: ID8 mouse ovarian cancer cells; experiment: tumor burden in mice after bursal injection of ID8 cells and treatment with FABP4 inhibitor; type: in vivo; conditions: 20 mg/kg body weight daily by oral gavage from day 60 after ID8 injection, assessed after 30 d
Procedure: (a) Immune competent mice were injected with 1 million ID8 cells under the ovarian bursa. […] Number of metastases (a) and metastatic tumor weight (b) were assessed 30 d after the FABP4 inhibitor or control vehicle treatment.

[3] = system: SKOV3ip1 cells; experiment: invasion assay of SKOV3ip1 cells toward adipocytes; type: cell-based, human; conditions: inhibitor added to coculture; used at 10 μM; 24 h
Text: (§1) FIGS. 11a-11g FABP4 has a key role in the interaction of cancer cells with adipocytes. (a) Representative immunohistochemical staining (bottom) for FABP4 in serial sections of primary ovarian tumor and corresponding omental metastatic tissues from a subject with stage IIIC advanced serous ovarian cancer (as classified by the International Federation of Gynecology and Obstetrics). Hematoxylin and eosin (H & E) staining is in the top images. The graph on the right is a summary of FABP4 protein expression scoring in 20 subjects, as assessed by immunohistochemistry. The scoring (0, 1 or 2, corresponding to negative, weak or strong) was performed in different tissue compartments: Benign ovarian stroma (A), primary ovarian cancer in the ovary (B), ovarian cancer metastatic to the omentum (C), interface of ovarian cancer cells into adipocytes (Adi) (D), and adipocytes (E). Error bars, ±s.e.m. (b) Confocal microscopy images of lipid accumulation in SKOV3ip1 cells cocultured with or without primary human omental adipocytes and a FABP4 inhibitor (nuclear counterstaining). One of two experiments, conducted with different human subject samples, is shown. (c) Invasion assay of SKOV3ip1 cells toward adipocytes in the absence or presence of the FABP4 inhibitor HTS01037. Bars report mean fold change±s.e.m. One of two experiments, using two different human subject samples, is shown. […]

[4] = system: SKOV3ip1 cells; experiment: lipid accumulation in cancer cells cocultured with primary human omental adipocytes (Bodipy 493/503, confocal microscopy); type: cell-based
Text: as §1, with “±s.e.m.” for “±s.e.m. (b) Confocal microscopy images of lipid accumulation in SKOV3ip1 cells cocultured with or without primary human omental adipocytes and a FABP4 inhibitor (nuclear counterstaining). One of two experiments, conducted with different human subject samples, is shown. (c) Invasion assay of SKOV3ip1 cells toward adipocytes in the absence or presence of the FABP4 inhibitor HTS01037. Bars report mean fold change±s.e.m. One of two experiments, using two different human subject samples, is shown.”
Lipid visualization. […] Adipocytes and extracellular fatty acids were washed away with HBSS containing 0.2% fatty-acid free BSA and total fluorescence per well in triplicate was quantified. […] Quantification of Bodipy neutral lipid dye was performed using Imaris software (Bitplane Inc., South Windor, Conn.) and normalized to number of nuclei in field (5-10 fields/condition). […]

[5] = system: HSL phosphorylation; experiment: immunoblot for phosphorylated hormone sensitive lipase (p-HSL) in adipocyte/SKOV3ip1 coculture; type: cell-based, human; conditions: pretreated with 10 μM propranolol
Text: FIGS. 9a-9d Cocultivation of ovarian cancer cells with adipocytes activates lipolysis in adipocytes and β-oxidation in cancer cells. (a) Quantitative RT-PCR for perilipin 1 in primary human omental adipocytes (Adi) cultured with and without SKOV3ip1 ovarian cancer (OvCa) cells. Bars report mean fold change relative to glyceraldehyde 3-phosphate dehydrogenase expression±s.e.m. (b) Immunoblot for phosphorylated hormone sensitive lipase (p-HSL) and total HSL in SKOV3ip1 cells cocultured with (+) and without (−) adipocytes and pretreated with 10 μM propranolol, a β-adrenergic receptor antagonist. (c) SKOV3ip1 cells were cocultured (1 h) with adipocytes, treated with isoproterenol (positive control) or 14-22 amide (negative control) and protein kinase A (PKA) activity was assessed. (d) β-oxidation in MONTY-1 OvCa cells cocultured with primary human adipocytes (L-carnitine, positive control; etomoxir, negative control). The graph reports the average oxidation rate at the indicated times±s.e.m.
Immunoblotting. In coculture experiments, primary human omental adipocytes were added to CMFDA-labeled SKOV3ip1 cells in SFM (1:5, PCV adipocytes:SFM) and incubated for 24 h. The adipocytes were removed and the SKOV3ip1 cells were subjected to FACS sorting to remove any remaining adipocytes in experiments involving FABP4 expression. […]

[6] = system: ID8 mouse ovarian cancer cells; experiment: tumor burden in mice after intraperitoneal injection of shRNA-transfected ID8 cells; type: in vivo; conditions: 10 weeks after intraperitoneal injection of shRNA-transfected ID8 cells, vs control group
Text: (§2) FIGS. 16a-16d Effects of FABP4 downregulation. (a) FABP4 mRNA expression in ID8 mouse ovarian cancer cells transfected with FABP4 small hairpin RNA (shRNA) (F4) or vector control shRNA (VC) in the presence (+) or absence (−) of mouse adipocytes. Bars report means±s.e.m. (b) Tumor burden in mice 10 weeks after intraperitoneal injection of ID8 mouse ovarian cancer cells transfected with 5 million shRNA (F4 or VC). (c) Metastatic tumor burden in mice 10 weeks after intraperitoneal injection of ID8 mouse ovarian cancer cells transfected with 5 million shRNA (F4 or VC). (d) mRNA expression of FABP4 in tumors collected 10 weeks after intraperitonel injection of ID 8 mouse ovarian cancer cells transferred with FABP4 shRNA or vector control shRNA. FABP4 mRNA expression was measured by quantitiative RT-PCR.
Animal experiments. All animal experiments were approved by the Institutional Animal Care and Use Committee, University of Chicago. Xenograft animal experiments and in vivo homing were conducted in female immune-compromised athymic nude mice. […] Tumor volumes were measured as described (Zou et al., 2007) over 24 d and tumor weight determined at the end of the experiment. […] Metastatic tumor weight and number of metastatic nodules were determined at the end of each experiment and tumor tissue fixed in 10% formalin.

[7] = system: FABP4 mRNA; experiment: FABP4 mRNA expression in ID8 cells transfected with shRNA (quantitative RT-PCR); type: cell-based, mouse; conditions: ID8 cells transfected with FABP4 shRNA vs vector control
Text: as §2, with “(d) mRNA expression of FABP4 in tumors collected 10 weeks after intraperitonel injection of ID 8 mouse ovarian cancer cells transferred with FABP4 shRNA or vector control shRNA.” left out
Quantitative real-time PCR. […] Real-time quantitative reverse transcription-PCR (RT-PCR) was performed as described (Sawada et al., 2008) using the following probes (Applied Biosystems, Carlsbad, Calif.): acyl-coenzyme A oxidase (ACOX1, Hs01074241_m1), CXCR1 (IL-8 receptor, Hs00174146 ml), carnitine palmitoyltransferase 1a (CPT1a, Hs00912681_m1), fatty acid binding protein 4 (FABP4; human, Hs00609791_m1; mouse, Mm00445878_m1), perilipin 1 (PLIN1, Hs00160173_m1) and glyceraldehyde-3-phosphate dehydrogenase (GAPDH; human, Hs00266705_g1; mouse, Mm99999915_g1). Relative mRNA gene expression was calculated using the 2^−ΔΔCt method as described (Shell et al., 2007). […]

Molecule: CCc1c(-c2ccccc2)c(-c2ccccc2)nn1-c1ccccc1-c1cccc(OCC(=O)O)c1 [BMS309403, ((2′-(5-ethyl-3,4-diphenyl-1H-pyrazol-1-yl)(1,1′-biphenyl)-3-yl)oxy)-acetic acid]
- human ovarian cancer cell proliferation on sections of human omentum [1]: reduces human ovarian cancer cell proliferation
- tumor burden (number of metastases, metastatic tumor weight) [2]: significantly reduced

Molecule: COC(=O)c1sc(-c2cccs2)cc1NC(=O)C=CC(=O)O [HTS01037, 4-{[2-(methoxycarbonyl)-5-(2-thienyl)-3-thienyl]amino}-4-oxo-2-butenoic acid]
- adipocyte-mediated invasion [3]: drastically reduced
- lipid uptake in SKOV3ip1 cells cocultured with human omentum adipocytes ([4]; 36 h coculture, Bodipy 493/503): prevents lipid uptake
- lipid accumulation in the cancer cells ([4]; inhibitor added to coculture of ovarian cancer cells and adipocytes, used at 10 μM): drastically reduced

Molecule: CC(C)NCC(O)COc1cccc2ccccc12 (centres unmarked) [propranolol]
- ovarian cancer cell-induced HSL activation [5]: partially reversed

Molecule: FABP4 shRNA: FABP4 small hairpin RNA (shRNA); comprises a nucleic acid sequence of SEQ ID NO: 1 (CCGGCTGGATGGAAATTTGCATCAACTCGAGTTGATGCAAATTTCCATCCAGTTTTTG)
- tumor burden, intraperitoneal model [6]: substantially lowered
- mRNA expression level of FABP4 [7]: decreased
